From patent US12139492B2 (Endotarget Inc., priority 2021, dated 2024)

Columns and labels:
MOLT-4 cell = test: Cell apoptosis by flow cytometry, MOLT-4 cells; format: cell-based; details: 1 and 10 μM, 72 hours, in vitro
Description: (§1) Cell apoptosis induced by treatment of exemplary compounds was measured by flow cytometry.
(§2) Flow cytometry analysis was performed after staining of the cells with PI and 7-AAD. For PI staining, 0.5×10^6 cells/mL were centrifuged at 1500 rpm for 5 min, supernatant was removed, and cell pellet was gently suspended with 1 ml Krishan buffer and then incubated at 4° C. in the dark for 60 min. Apoptosis was determined by Cytomic's FC500 Flow Cytometer (Beckman Coulter) and the data were analyzed by Win Cycle Multicycle Software (De Novo Software). For the 7-AAD staining, 0.5×10^6 cells were washed with PBS and centrifuged at 1500 rpm for 5 min. Supernatant was removed and the cell pellet was suspended in 100 μL PBS. 10 μL 7-AAD was added to each tube and incubated for 20 min at room temperature in the dark. 7-AAD labeled-cells were analyzed by Cytomic's FC500 Flow Cytometry (Beckman Coulter) and FCS Express Flow Cytometry Data Analysis software (DeNovo Software). For morphologic analysis of apoptosis by light microscopy, cells were incubated with Mock or with […] for 72 h. Control or drug treated-cells were cytospun on glass slides, stained with Wright-Giemsa, and then examined by light microscopy. Morphological changes associated with apoptosis included cellular shrinkage, nuclear condensation, nuclear fragmentation, and formation of apoptotic bodies. […]

Namalwa cell = test: Cell apoptosis by flow cytometry, Namalwa cells; format: cell-based; details: 1 and 10 μM, 72 hours, in vitro
Description: as §1, §2

[1] = tested on: primary human CLL cell CTG-3754; test: Ex vivo cell inhibition, Cell Titer Glo viability, primary CLL cell CTG-3754; format: cell-based; details: 10 nM to 50 μM, 6 days
Description: (§3) Primary human Human Chronic Lymphocytic Leukemia cell lines were used to measure ex vivo cell inhibition by exemplary compounds. The cells were incubated with test compounds at a dose range of 10 nM to 50 μM for 6 days. Cell Titer Glo data were gathered for cell viability evaluation.

Mino cell = test: Cell apoptosis by flow cytometry, Mino cells; format: cell-based; details: 1 and 10 μM, 72 hours, in vitro
Description: as §1, §2

Jeko-1 xenograft tumor = test: In vivo tumor inhibition efficacy, JeKo-1 xenograft in NOD/SCID mice; details: 20 mg/kg daily oral gavage for 3 weeks
Description: JeKo-1 cells were obtained from American Type Culture Collection (ATCC, Manassas, VA). cells were maintained in RPMI 1640 (Life Technologies, Grand Island, NY) supplemented with 10% heat-inactivated fetal bovine serum (56° C. for 30 minutes), penicillin (10,000 units/mL; Sigma, St Louis, Mo), streptomycin (10 mg/mL; Sigma), gentamicin (50 mg/mL; Life Technologies), amphotericin B (25 mg/mL; Sigma), and L-glutamine (200 mM, 29.2 mg/mL; Life Technologies). culture, as previously described (29, 30). JeKo-1 cells (10 million) were subcutaneously implanted into the flank of NOD/SCID mice. When the average tumor volume reached approximately 300 mm^3, the following treatments were administered in cohorts of 5 mice for each treatment: vehicle alone, 20 mg/kg ibrutinib, 20 mg/kg Compound 2, and 20 mg/kg Compound 161 was administered daily via oral gavage for 3 weeks. Tumor growth was monitored every other day by calipers and tumor volume was calculated using the equation: (½(length×width^2)).

JeKo-1 cell = test: Cell apoptosis by flow cytometry, JeKo-1 cells; format: cell-based; details: 0.1, 1, and 10 μM, 72 hours, in vitro
Description: as §1, §2

BTK [2] = target: T1, BTK (Homo sapiens, UniProt Q06187); test: Degradation of BTK protein in Namalwa cells (Western blot; DC50, Dmax); details: Namalwa B lymphocyte cells, Western blot; for degradation of BTK protein: various concentrations, 24 hours
T1 sequence (Q06187 whole entry): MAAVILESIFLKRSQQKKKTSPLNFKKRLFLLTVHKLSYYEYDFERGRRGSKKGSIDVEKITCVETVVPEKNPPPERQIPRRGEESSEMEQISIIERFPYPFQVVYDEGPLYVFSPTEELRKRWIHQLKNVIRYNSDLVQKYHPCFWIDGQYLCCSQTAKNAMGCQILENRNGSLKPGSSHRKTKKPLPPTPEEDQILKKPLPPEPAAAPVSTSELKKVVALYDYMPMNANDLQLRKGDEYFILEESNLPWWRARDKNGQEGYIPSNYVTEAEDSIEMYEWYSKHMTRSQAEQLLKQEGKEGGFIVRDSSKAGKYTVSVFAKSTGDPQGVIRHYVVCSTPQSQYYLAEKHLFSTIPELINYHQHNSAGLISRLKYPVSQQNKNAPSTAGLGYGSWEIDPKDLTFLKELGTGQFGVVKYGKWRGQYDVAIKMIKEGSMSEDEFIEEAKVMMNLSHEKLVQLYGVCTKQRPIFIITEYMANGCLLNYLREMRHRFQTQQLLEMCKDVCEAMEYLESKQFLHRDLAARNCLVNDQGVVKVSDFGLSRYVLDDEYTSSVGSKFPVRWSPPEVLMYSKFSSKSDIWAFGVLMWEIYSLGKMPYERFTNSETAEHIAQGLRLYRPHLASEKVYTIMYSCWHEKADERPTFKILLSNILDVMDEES

Mino cells = test: Antiproliferative effect, MTS cell viability assay, Mino cells; format: cell-based; details: Homo sapiens, MINO, Mino mantle cell lymphoma cells; read-out: IC50 (anti-proliferation) Mino cells
How it was run: (§4)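 Readout was MTS-derived formazan absorbance (490 nm) reflecting metabolically active cells. Treatment lasted 72 h over a 0–10 μM range (0.001, 0.01, 0.1, 1, 10 μM) in JeKo-1 and Mino B-cell malignancy cells.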

JeKo-1 cells = test: Antiproliferative effect, MTS cell viability assay, JeKo-1 cells; format: cell-based; details: Homo sapiens; JeKo-1 mantle cell lymphoma cells; read-out: IC50 (anti-proliferation) JeKO-1 cells
How it was run: as §4

BTK [3] = target: T1, BTK; test: Degradation of BTK protein in JeKo-1 cells (Western blot; DC50, Dmax); details: JeKo-1 mantle cell lymphoma cells, various concentrations, 24 hours
BTK [4] = target: T1, BTK; test: BTK degradation, DC50 and Dmax of Table 1 (cell line not given); format: cell-based; set-up: endogenous in cells; details: for DC50: concentration giving 50% reduction of BTK expression level
[5] = tested on: primary human CLL cell CTG-3763; test: Ex vivo cell inhibition, Cell Titer Glo viability, primary CLL cell CTG-3763; format: cell-based; details: 10 nM to 50 μM, 6 days
Description: as §3

Compound | induction of cell apoptosis (MOLT-4 cell) | induction of cell apoptosis (Namalwa cell) | effect on primary human CLL cell viability [1] | induction of cell apoptosis (Mino cell) | efficacy in inhibiting xenograft tumor growth (Jeko-1 xenograft tumor) | induction of cell apoptosis (JeKo-1 cell) | degradation of BTK protein (BTK [2]) | IC50 (Mino cells) [nM] | IC50 (JeKo-1 cells) [nM] | degradation of BTK protein (BTK [3]) | Dmax (BTK [4]) [%] | DC50 (BTK [4]) [nM] | effect on primary human CLL cell viability [5] | degradation of BTK protein at 10^−6 M (BTK [2]; 10^−6 M)
Nc1ncnc2c1c(-c1ccc(Oc3ccccc3)cc1)nn2C1CCN(CCOCCOCCN2CCN(c3ccc4c(c3)CN(C3CCC(=O)NC3=O)C4=O)CC2)CC1 (centres unmarked) [Compound 2, 3-(5-(4-(2-(2-(2-(4-(4-amino-3-(4-phenoxyphenyl)-1H-pyrazolo(3,4-d)pyrimidin-1-yl)piperidin-1-yl)ethoxy)ethoxy)ethyl)piperazin-1-yl)-1-oxoisoindolin-2-yl)piperidine-2,6-dione] | induction of MOLT-4 cell apoptosis | induction of Namalwa cell apoptosis | dose-dependent effect | induction of Mino cell apoptosis | inhibiting Jeko-1 xenograft tumor growth | induction of JeKo-1 cell apoptosis | dose-dependent degradation | < 1000 | < 1000 | dose-dependent degradation | > 90 | < 10 | dose-dependent effect | 
Nc1ncnc2c1c(-c1ccc(Oc3ccccc3)cc1)nn2[C@@H]1CCCN(C2CCN(C(=O)N3CCC(N4CCN(c5ccc6c(c5)C(=O)N(C5CCC(=O)NC5=O)C6=O)CC4)CC3)CC2)C1 (stereo partly drawn) [Compound 161, 5-(4-(1-((R)-3-(4-amino-3-(4-phenoxyphenyl)-1H-pyrazolo(3,4-d)pyrimidin-1-yl)-(1,4′-bipiperidine)-1′-carbonyl)piperidin-4-yl)piperazin-1-yl)-2-(2,6-dioxopiperidin-3-yl)isoindoline-1,3-dione] |  |  |  |  | inhibiting Jeko-1 xenograft tumor growth |  | dose-dependent degradation | < 1000 | < 1000 |  | > 90 | 10 to 50 |  | degradation
